Laboratory results: ChEMBL document CHEMBL1145652, “Plant anticancer agents. XXVI. Constituents of Peddiea fischeri” (1983)
In brackets after ≈: the same amount, converted by molar mass. Activity calls are given as the source filed them. The calls are words filed in the database; no cut-off is given here.

Key:
P388 [1] = assay: Cytotoxicity against mouse P388 cells; assay type: functional; details: read-out: ED50 (the source's name)
P388 [2] = assay: In vivo antitumor activity against mouse P388 cells at 2.2 to 17.5 mg/kg; assay type: functional, organism-based
P388 [3] = assay: In vivo antitumor activity against mouse P388 cells at 1.4 to 11.4 mg/kg; assay type: functional, organism-based

Row | Compound | EC50 (P388 [1]) | Activity (P388 [2]) | Activity (P388 [3])
1 | COC1=CC(=O)C=C(OC)C1=O [2,6-DIMETHOXYQUINONE] | 0.0015 µg/mL (≈ 0.00892 µM) | – | –
2 | COc1cc2cc(Oc3ccc4ccc(=O)oc4c3)c(=O)oc2cc1O [DAPHNORETIN] | 2.2 µg/mL (≈ 6.24 µM) | inactive | inactive
3 | O=c1ccc2ccc(O)cc2o1 [UMBELLIFERONE] | 0.4 µg/mL (≈ 2.47 µM) | inactive | inactive
